Measured values reported in ChEMBL document CHEMBL1201862, “PubChem BioAssay data set” (2004).
Each block holds one compound with its values, some of them ahead of it. Calls of active or inactive are those of the source.

Columns and labels:
[1] = potency of ADAM10 substrate cleavage blockers – biochemical, QFRET, dose response (AID 743254);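 note: ADAM10 enzyme with the DM2 quenched FRET peptide as substrate; EDANS fluorescence gain as the protease cuts the substrate; inhibitor potency against ADAM10 proteolytic activity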
[2] = molecular target: T1, Disintegrin and metalloproteinase domain-containing protein 17 (Homo sapiens, UniProt P78536); experiment: inhibition of ADAM17 substrate cleavage – biochemical, quenched FRET substrate, counter-screen for ADAM10 exosite inhibitor project, dose response (AID 743253)
T1 sequence (P78536 whole entry, the tested form may be a part): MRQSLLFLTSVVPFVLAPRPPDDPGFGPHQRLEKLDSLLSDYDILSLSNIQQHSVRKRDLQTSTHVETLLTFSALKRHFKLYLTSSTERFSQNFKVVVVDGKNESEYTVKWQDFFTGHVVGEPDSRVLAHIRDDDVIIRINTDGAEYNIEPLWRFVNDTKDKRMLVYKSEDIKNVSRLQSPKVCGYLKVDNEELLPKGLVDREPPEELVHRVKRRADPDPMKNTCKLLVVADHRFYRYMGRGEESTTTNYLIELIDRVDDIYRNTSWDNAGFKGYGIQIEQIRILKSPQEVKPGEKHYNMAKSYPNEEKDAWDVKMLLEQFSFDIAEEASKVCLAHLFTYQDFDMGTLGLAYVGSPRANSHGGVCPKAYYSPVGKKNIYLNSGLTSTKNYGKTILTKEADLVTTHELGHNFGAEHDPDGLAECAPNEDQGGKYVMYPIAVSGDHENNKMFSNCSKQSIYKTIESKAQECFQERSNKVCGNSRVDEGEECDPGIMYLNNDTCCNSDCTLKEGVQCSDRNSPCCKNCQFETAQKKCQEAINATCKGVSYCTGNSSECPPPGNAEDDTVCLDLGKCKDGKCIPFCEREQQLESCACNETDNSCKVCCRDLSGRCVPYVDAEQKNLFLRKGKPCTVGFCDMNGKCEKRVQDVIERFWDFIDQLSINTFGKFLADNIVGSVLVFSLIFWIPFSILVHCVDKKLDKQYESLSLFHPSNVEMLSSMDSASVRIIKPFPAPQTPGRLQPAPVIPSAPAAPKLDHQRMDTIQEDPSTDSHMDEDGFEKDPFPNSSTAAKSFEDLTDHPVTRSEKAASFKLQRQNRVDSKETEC

[3] = viability loss in HepG2 hepatoma cells – cell-based, ATP luminescence, cherry-pick, activator set 2, cytotoxicity control, dose response (AID 1053143); assay type: functional
[4] = viability loss in HeLa cells – cytotoxicity control for MgcRacGAP inhibitor project, dose response (AID 624300); assay type: functional
[5] = molecular target: T2, Rac GTPase-activating protein 1 (Homo sapiens, UniProt Q9H0H5); experiment: blockers of MgcRacGAP-driven Rac1 GTP hydrolysis – biochemical, ADP Hunter fluorescence, primary and confirmatory, confirmation (AID 624330); assay type: functional
T2 sequence (Q9H0H5 whole entry): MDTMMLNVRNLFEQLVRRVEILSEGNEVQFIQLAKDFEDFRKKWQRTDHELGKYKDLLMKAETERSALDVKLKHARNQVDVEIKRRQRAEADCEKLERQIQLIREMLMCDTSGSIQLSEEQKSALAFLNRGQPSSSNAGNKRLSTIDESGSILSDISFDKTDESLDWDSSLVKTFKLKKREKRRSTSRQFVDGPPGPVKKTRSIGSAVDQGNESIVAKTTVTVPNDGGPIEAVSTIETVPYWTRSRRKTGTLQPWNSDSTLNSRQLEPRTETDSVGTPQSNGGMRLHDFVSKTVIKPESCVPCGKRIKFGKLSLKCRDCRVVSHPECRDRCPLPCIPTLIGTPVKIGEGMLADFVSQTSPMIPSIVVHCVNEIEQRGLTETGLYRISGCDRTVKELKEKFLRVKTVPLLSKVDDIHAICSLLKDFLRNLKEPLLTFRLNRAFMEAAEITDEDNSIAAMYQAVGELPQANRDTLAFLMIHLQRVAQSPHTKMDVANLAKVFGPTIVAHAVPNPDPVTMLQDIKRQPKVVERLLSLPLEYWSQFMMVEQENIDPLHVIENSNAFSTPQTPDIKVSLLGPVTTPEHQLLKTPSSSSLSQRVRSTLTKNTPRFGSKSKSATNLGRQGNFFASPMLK

[6] = molecular target: G-protein coupled receptor 183 (Homo sapiens, UniProt P32249); experiment: SAR confirmation of small molecule antagonists of the EBI2 receptor via a luminescent beta-arrestin assa.; assay type: functional
G-protein coupled receptor 183, sequence (P32249 whole entry, the tested form may be a part): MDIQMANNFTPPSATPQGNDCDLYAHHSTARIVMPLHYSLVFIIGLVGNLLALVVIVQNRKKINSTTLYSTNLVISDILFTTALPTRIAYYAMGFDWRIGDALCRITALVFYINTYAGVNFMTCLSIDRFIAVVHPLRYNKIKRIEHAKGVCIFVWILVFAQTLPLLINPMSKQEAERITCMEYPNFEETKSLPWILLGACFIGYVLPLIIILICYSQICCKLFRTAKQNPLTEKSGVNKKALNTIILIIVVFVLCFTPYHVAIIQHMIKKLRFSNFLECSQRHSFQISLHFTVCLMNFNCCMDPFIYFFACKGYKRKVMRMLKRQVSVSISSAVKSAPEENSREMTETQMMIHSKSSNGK

[7] = molecular target: E3 ubiquitin-protein ligase UHRF1 (Homo sapiens, UniProt Q96T88); experiment: Counterscreen for inhibitors of 5-meCpG-binding domain protein 2 (MBD2): TRFRET-based biochemical high throughput dose response assay to identify inhibitors of binding of ubiquitin-like with PHD and ring finger domains 1 (UHRF1) to methylated oligonucleotide.
E3 ubiquitin-protein ligase UHRF1, sequence (Q96T88 whole entry, the tested form may be a part): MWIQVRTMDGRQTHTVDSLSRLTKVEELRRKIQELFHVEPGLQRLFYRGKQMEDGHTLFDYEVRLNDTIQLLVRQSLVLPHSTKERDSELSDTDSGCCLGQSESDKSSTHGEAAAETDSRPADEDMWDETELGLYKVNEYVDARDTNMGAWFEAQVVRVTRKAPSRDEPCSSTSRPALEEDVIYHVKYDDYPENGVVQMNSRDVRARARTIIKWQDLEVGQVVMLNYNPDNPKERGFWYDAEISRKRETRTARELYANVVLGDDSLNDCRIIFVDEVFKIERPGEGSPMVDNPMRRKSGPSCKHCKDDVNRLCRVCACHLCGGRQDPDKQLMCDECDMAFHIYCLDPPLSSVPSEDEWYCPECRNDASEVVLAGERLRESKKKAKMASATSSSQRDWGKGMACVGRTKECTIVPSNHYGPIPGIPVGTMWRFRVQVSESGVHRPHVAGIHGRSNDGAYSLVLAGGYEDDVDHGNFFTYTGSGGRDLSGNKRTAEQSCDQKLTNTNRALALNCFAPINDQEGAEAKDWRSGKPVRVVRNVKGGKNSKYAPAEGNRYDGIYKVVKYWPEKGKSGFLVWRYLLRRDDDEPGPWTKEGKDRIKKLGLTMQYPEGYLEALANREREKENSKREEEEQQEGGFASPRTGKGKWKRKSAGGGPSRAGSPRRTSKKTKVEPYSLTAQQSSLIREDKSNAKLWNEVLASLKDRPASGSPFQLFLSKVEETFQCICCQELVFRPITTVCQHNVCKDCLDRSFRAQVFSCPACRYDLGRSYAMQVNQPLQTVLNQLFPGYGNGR

[8] = Counterscreen for activators of the function of SWI/SNF related, matrix associated, actin dependent regulator of chromatin, subfamily a, member 2 (SMARCA2, BRM): Luminescence-based cell-based high throughput dose response assay to identify non-selective compounds using the VP16 reporter assay.; assay type: functional
HEK293 [9] = experiment: cells; conditions: Homo sapiens
HEK293 [10] = experiment: cells; conditions: Homo sapiens; remark: listed apart in the source
[11] = molecular target: SWI/SNF-related matrix-associated actin-dependent regulator of chromatin subfamily A member 2 (Homo sapiens, UniProt P51531); experiment: Luminescence-based cell-based high throughput dose response assay to identify activators of the function of SWI/SNF related, matrix associated, actin dependent regulator of chromatin, subfamily a, member 2 (SMARCA2, BRM).; assay type: functional
[12] = molecular target: T3, Microphthalmia-associated transcription factor (Homo sapiens, UniProt O75030); experiment: reducers of TRPM1 reporter luminescence, concentration series – cell-based, SK-MEL-5, cherry-picked, set 3, MITF inhibitor project, dose response (AID 493073); assay type: functional;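 note: SK-MEL-5 melanoma cells with luciferase driven by the MITF target TRPM1 promoter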
T3 sequence (O75030 whole entry): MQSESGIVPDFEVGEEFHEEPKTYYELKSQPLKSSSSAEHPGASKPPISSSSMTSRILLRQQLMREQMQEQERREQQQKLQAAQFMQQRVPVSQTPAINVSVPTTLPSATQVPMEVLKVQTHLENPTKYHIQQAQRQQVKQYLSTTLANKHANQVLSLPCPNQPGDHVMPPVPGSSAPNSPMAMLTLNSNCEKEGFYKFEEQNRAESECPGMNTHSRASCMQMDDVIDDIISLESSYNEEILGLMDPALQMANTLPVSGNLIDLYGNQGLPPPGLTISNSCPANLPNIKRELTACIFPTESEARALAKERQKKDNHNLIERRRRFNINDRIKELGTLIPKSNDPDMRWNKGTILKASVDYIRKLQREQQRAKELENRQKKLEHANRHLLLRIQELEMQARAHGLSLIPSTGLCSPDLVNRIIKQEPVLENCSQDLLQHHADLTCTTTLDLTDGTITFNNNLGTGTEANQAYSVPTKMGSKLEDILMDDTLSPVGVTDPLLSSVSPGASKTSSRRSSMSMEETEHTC

[13] = reduced cellular PGC1a acetyl-lysine signal – cell-based, cherry-picked samples, dose response (AID 720514); assay type: functional;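 note: potency may reflect raised or lowered acetylation signal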
[14] = molecular target: T4, RNA-binding protein pos-1 (Caenorhabditis elegans, UniProt G5EF15); experiment: disruptors of C. elegans POS-1 RNA interaction – biochemical, fluorescence polarization, dose response (AID 1964);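 note: purified POS-1 fused to maltose binding protein made in E. coli; potency of compounds blocking POS-1 binding to fluorescent RNA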
T4 sequence (G5EF15 whole entry): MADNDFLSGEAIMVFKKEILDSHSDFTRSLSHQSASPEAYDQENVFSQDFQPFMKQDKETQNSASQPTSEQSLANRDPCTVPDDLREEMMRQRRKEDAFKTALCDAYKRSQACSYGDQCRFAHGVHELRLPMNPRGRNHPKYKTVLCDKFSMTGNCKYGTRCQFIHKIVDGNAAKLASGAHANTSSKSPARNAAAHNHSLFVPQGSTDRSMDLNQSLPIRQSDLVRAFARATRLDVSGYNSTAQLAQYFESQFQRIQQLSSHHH

[15] = molecular target: T5, Zinc finger protein mex-5 (Caenorhabditis elegans, UniProt Q9XUB2); experiment: potency of MEX-5 RNA-binding blockers – biochemical, C. elegans, fluorescence polarization, dose response (AID 1960)
T5 sequence (Q9XUB2 whole entry): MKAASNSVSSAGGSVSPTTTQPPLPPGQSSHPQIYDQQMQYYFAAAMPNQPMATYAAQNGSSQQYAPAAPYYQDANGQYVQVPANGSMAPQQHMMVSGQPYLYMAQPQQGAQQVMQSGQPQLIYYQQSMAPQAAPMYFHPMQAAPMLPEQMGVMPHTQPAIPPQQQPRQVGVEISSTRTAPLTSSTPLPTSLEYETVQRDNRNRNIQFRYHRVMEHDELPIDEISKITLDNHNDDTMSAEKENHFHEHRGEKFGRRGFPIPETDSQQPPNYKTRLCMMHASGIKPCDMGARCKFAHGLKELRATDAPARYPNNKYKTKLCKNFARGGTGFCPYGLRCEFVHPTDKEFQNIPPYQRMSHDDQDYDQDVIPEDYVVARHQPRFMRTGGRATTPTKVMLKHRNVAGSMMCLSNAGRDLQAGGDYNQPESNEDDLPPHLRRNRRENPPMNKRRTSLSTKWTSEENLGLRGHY

[16] = IC50 of insulin release inhibition, rat insulinoma INS-1E line, 5 mM glucose, cell-based (AID 1117331); assay type: functional
Protein Tat = Protein Tat (Human immunodeficiency virus type 1 group M subtype B (isolate HXB2)(HIV-1), UniProt P04608); assay type: functional;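 note: tat binding to TAR RNA read out by fluorescence polarization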
Protein Tat, sequence (P04608 whole entry): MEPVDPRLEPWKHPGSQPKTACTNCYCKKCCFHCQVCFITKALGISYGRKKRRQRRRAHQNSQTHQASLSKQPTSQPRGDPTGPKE

[17] = molecular target: COUP transcription factor 2 (Homo sapiens, UniProt P24468); experiment: Luminescence-based cell-based high throughput dose response assay to identify inhibitors of COUP-TFII (NR2F2).; assay type: functional;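 note: HEK293 cells transiently cotransfected with COUP-TFII expression vector and reporter; luciferase reporter luminescence driven by COUP-TFII from the pX2-168 reporter plasmid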
COUP transcription factor 2, sequence (P24468 whole entry): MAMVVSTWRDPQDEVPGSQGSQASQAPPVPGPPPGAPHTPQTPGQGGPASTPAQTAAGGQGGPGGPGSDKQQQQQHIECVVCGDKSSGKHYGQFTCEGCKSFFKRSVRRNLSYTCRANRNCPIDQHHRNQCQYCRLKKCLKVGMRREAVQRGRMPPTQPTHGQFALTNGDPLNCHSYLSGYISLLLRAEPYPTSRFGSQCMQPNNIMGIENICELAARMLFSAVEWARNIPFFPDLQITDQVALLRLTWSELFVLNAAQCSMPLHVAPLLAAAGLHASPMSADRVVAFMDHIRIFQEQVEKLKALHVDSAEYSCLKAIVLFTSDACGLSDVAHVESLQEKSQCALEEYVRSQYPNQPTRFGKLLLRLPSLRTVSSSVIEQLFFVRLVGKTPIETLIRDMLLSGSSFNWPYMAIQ

[18] = Dd2 malaria parasite growth inhibition potency – SYBR Green, dry powder samples, dose response (AID 1159566); assay type: functional, cell-based;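 note: potency for growth inhibition with lower SYBR green DNA signal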
[19] = growth inhibition of yeast DHODH-expressing 3D7 parasites – SYBR Green, dry powder samples, dose response (AID 1159570); assay type: functional, cell-based;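 note: parasite growth measured after 72 hours of compound exposure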
[20] = P. falciparum Dd2 growth inhibitors, dose response, SYBR Green, cherry-picked samples (AID 1159567); assay type: functional, cell-based
[21] = growth inhibition of PfATP4-mutant resistant parasites – NITD609-resistant line, SYBR Green, dry powder, dose response (AID 1159571); assay type: functional, cell-based;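 note: parasites synchronized at ring stage by sorbitol before testing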
Mucolipin-3 = molecular target: T6, Mucolipin-3 (Homo sapiens, UniProt Q8TDD5); experiment: Dose response cell-based high-throughput screening assay for agonists of the transient receptor potential channel ML3 (TRPML3). [Related pubchem assays: 1526, 1424, 1448 ]; assay type: functional
T6 sequence (Q8TDD5 whole entry): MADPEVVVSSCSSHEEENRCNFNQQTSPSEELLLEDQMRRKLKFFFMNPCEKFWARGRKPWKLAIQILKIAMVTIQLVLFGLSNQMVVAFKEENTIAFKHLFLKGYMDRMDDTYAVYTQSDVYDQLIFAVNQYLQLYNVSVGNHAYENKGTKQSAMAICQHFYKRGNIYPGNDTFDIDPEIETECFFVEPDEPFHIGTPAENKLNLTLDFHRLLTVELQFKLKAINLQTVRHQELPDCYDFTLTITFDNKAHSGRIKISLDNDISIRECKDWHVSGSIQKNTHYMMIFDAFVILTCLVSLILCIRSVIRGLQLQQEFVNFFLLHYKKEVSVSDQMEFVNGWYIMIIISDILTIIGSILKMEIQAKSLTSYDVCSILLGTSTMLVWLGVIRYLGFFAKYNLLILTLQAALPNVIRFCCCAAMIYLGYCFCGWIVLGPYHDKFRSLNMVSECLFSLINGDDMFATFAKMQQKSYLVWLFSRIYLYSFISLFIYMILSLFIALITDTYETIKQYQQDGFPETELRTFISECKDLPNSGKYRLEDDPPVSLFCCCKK

Ion channel NompC = Ion channel NompC (Danio rerio, UniProt Q7T1G6); experiment: Fluorescence counterscreen assay for TRPML3 agonists: dose response cell-based high-throughput screening assay to identify agonists of the transient receptor potential channel N1 (TRPN1). [Related pubchem assays: 1526, 1424, 1448 ]; assay type: functional
Ion channel NompC, sequence (Q7T1G6 whole entry, the tested form may be a part): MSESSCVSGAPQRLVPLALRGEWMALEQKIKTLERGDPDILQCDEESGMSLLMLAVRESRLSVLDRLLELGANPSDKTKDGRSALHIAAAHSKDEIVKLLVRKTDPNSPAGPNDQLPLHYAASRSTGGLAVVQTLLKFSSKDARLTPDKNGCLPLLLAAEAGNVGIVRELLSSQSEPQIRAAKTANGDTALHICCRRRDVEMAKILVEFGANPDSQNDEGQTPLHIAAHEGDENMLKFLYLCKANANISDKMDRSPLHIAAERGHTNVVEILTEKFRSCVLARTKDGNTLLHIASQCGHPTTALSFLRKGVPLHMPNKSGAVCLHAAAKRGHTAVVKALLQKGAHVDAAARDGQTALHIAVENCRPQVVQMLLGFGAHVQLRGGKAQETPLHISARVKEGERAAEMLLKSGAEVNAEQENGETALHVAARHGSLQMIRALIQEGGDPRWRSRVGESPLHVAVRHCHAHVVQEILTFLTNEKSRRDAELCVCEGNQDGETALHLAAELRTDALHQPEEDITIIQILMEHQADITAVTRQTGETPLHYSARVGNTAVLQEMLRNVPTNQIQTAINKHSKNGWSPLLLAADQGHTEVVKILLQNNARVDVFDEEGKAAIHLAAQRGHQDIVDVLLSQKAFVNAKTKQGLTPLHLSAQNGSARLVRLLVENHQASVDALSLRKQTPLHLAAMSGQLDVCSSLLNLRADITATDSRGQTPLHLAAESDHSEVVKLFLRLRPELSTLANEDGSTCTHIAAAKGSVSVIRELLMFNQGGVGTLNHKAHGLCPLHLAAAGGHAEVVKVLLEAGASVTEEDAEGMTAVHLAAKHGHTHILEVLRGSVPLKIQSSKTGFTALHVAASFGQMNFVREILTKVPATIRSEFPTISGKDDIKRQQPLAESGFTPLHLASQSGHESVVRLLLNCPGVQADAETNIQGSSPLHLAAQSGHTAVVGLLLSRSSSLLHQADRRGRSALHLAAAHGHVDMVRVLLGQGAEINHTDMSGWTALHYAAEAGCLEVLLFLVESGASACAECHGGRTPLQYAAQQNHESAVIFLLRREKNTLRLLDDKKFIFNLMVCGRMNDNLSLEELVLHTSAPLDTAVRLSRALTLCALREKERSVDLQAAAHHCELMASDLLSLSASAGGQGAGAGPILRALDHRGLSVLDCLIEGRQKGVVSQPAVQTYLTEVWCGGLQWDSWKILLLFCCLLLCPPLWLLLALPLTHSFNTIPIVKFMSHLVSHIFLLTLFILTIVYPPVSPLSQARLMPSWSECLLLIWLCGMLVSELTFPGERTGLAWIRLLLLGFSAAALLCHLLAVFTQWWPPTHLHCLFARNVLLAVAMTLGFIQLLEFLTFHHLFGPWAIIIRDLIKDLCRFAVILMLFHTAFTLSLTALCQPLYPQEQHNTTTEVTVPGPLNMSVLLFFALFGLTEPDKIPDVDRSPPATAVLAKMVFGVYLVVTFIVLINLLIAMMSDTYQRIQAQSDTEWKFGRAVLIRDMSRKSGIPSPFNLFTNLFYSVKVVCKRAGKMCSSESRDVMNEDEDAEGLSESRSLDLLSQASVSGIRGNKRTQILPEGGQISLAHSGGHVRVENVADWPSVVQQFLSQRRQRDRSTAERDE

[22] = molecular target: T1, Disintegrin and metalloproteinase domain-containing protein 17; experiment: exosite inhibitors of ADAM17, dose response, biochemical (AID 743260)
[23] = molecular target: Dual specificity tyrosine-phosphorylation-regulated kinase 1A (Rattus norvegicus, UniProt Q63470); assay type: biochemical, Homo sapiens
Paired box protein Pax-8 = Paired box protein Pax-8 (Homo sapiens, UniProt Q06710); experiment: PAX8 transcriptional activity inhibition in RMG-I – RMG-I cells, luciferase, cherry-pick, dose response (AID 687027); assay type: functional, cell-based;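 note: luciferase reporter driven by Pax8 target thyroperoxidase promoter measured by SteadyGlo luminescence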
Paired box protein Pax-8, sequence (Q06710 whole entry): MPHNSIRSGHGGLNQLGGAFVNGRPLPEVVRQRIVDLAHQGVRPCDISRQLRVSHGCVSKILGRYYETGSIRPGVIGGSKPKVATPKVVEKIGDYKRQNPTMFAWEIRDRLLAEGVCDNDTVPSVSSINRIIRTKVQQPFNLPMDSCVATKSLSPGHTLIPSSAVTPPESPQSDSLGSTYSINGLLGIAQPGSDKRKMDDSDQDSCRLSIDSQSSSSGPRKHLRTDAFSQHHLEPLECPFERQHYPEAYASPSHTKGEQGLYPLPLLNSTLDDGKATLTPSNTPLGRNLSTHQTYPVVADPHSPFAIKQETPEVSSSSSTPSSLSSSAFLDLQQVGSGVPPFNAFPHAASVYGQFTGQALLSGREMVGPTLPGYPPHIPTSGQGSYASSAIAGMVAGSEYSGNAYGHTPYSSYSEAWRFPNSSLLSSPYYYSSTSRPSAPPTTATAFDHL

IC50 [1]: 13.9 µM (inactive)
IC50 [2]: > 69.5 µM (inactive)
SMILES: OC(c1ccccc1)(c1nc(-c2ccc(Cl)cc2)cs1)C(F)(F)F (stereo not given)

SMILES: CCOc1cc(C2NN=C(c3ccc(C)cc3)S2)ccc1O (stereo not given)
AC50 [3]: > 52 µM (inactive)
CC50 [4]: 100 µM (active)
IC50 [5]: 112 µM (active)

IC50 [6]: 0.0287 µM (active)
SMILES: O=C(/C=C/c1ccc(Br)cc1)N1CCN(C(=O)c2cccc(B(O)O)c2)CC1

SMILES: Clc1ccc2c(c1)-c1ccccc1C1=NCCN12
IC50 [7]: > 43.8 µM (inactive)
EC50 [8]: > 91.3 µM (inactive)
EC50 (HEK293 [9]): > 59.5 µM (inactive)
EC50 (HEK293 [10]): > 59.5 µM (inactive)
EC50 [11]: 4.65 µM (active)

SMILES: CCC(=O)N1CCN(c2ccc(Cl)cc2NC(=O)c2ccc([N+](=O)[O-])o2)CC1
AC50 [12]: 12.4 µM (active)
AC50 [13]: 29.4 µM (active)

SMILES: O=c1c2ccccc2oc2ccc(NCCCn3ccnc3)cc12
EC50 [14]: 55.2 µM (active)
AC50 [3]: > 52 µM (inactive)
EC50 [15]: 50.5 µM (active)

SMILES: COc1ccc(Cl)cc1C(=O)NCCc1ccc(S(=O)(=O)NC(=O)NC2CCCCC2)cc1 [GLYBURIDE]
IC50 [16]: 0.00808 µM (active)

IC50 (Protein Tat): 30.8 µM (inconclusive)
IC50 [5]: 26.9 µM (active)
SMILES: CC1CCCC(/C=N/c2ccc(O)cc2)=C1O (stereo not given)

IC50 [17]: 10 µM (inactive)
SMILES: CCc1cc(-c2nnn(CCC3COCCO3)c2CC)ccc1-c1cn(Cc2ccc3ccccc3c2)nn1 (stereo not given)

SMILES: COc1ccc2c3c([nH]c2c1)[C@H](CO)N(C(=O)C1CCOCC1)CC31CCN(Cc2nccs2)CC1
AC50 [18]: 0.467 µM (active)
AC50 [19]: 0.387 µM (active)
AC50 [20]: 2.43 µM (active)
AC50 [21]: 0.384 µM (active)

EC50 (Mucolipin-3): 2.76 µM (active)
EC50 (Ion channel NompC): > 29.9 µM (not active)
IC50 [22]: > 69.5 µM (inactive)
SMILES: C=C(C)CN1CCN(S(=O)(=O)c2ccc(C)c(N(C)S(=O)(=O)c3ccc(C)cc3)c2C)CC1

SMILES: CN(C)CCNc1ccc(CO)c2sc3ccc(O)cc3c(=O)c12
AC50 [23]: 1.82 µM (active)
IC50 [7]: > 43.8 µM (inactive)
CC50 [4]: 36.1 µM (active)
AC50 (Paired box protein Pax-8): 5.72 µM (active)
IC50 [5]: 20.2 µM (active)

IC50 [1]: > 69.5 µM (inactive)
IC50 [2]: > 69.5 µM (inactive)
SMILES: CCn1nc(C(=O)OC(C(=O)c2c[nH]c3ccccc23)c2ccccc2)c2ccccc2c1=O (stereo not given)

IC50 [6]: 0.0521 µM (active)
SMILES: COc1cccc(S(=O)(=O)N2CCN(C(=O)/C=C/c3ccc(F)cc3)CC2)c1
